Assay results: ChEMBL document CHEMBL1136424, “Novel selective small molecule agonists for peroxisome proliferator-activated receptor delta (PPARdelta)--synthesis and biological activity” (Bioorg Med Chem Lett, 2003); call rule not given here

Tests used:
[1] = biological target: T1, Peroxisome proliferator-activated receptor gamma (Homo sapiens, UniProt P37231); assay: Maximum transcriptional activation of human PPAR gamma receptor
T1 sequence (P37231 whole entry): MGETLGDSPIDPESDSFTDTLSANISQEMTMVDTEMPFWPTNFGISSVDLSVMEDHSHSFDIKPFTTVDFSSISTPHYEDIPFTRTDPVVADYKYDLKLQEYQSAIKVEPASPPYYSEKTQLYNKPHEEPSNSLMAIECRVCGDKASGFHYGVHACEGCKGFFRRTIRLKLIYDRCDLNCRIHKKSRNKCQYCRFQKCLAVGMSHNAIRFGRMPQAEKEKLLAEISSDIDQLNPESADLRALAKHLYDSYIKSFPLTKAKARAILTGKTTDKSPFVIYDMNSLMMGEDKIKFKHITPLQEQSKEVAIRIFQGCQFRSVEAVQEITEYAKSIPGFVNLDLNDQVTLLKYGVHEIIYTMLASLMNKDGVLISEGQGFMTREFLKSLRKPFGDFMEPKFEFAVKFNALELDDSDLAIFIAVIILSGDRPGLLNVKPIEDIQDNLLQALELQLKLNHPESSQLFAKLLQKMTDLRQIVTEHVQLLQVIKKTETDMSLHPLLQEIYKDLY

[2] = biological target: T2, Peroxisome proliferator-activated receptor delta (Homo sapiens, UniProt Q03181); assay: Binding affinity for human PPAR delta receptor
T2 sequence (Q03181 whole entry): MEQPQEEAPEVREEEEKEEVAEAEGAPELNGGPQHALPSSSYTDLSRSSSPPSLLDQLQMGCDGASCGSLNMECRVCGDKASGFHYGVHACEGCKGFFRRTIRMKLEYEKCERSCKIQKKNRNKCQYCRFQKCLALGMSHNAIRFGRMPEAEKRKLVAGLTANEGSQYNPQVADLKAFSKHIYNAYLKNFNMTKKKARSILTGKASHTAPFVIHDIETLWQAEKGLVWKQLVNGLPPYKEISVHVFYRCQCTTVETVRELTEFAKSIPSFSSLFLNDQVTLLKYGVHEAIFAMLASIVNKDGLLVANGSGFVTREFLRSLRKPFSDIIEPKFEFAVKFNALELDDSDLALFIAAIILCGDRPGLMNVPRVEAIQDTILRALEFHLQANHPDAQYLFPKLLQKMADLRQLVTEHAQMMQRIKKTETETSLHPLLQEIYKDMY

[3] = biological target: T3, Peroxisome proliferator-activated receptor alpha (Homo sapiens, UniProt Q07869); assay: Maximum transcriptional activation of human PPAR alpha receptor
T3 sequence (Q07869 whole entry): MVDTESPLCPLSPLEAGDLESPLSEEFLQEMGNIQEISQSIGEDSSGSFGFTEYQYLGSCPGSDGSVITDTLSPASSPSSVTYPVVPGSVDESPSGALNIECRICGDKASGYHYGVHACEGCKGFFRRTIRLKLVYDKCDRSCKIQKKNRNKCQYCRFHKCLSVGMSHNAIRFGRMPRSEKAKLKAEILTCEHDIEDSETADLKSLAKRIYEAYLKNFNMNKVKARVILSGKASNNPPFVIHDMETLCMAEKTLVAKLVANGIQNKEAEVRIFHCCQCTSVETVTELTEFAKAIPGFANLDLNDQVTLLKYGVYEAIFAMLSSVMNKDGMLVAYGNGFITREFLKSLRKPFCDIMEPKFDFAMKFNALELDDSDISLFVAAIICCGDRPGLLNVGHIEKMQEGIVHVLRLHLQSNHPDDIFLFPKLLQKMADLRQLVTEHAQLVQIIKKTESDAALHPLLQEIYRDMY

[4] = biological target: T2, Peroxisome proliferator-activated receptor delta; assay: Maximum transcriptional activation of human PPAR delta receptor
[5] = biological target: T1, Peroxisome proliferator-activated receptor gamma; assay: Maximum transcriptional activation of human PPAR gamma receptor; IA=inactive
[6] = biological target: T4, Peroxisome proliferator-activated receptor gamma (Mus musculus, UniProt P37238); assay: Activity against murine PPAR gamma receptor
T4 sequence (P37238 whole entry): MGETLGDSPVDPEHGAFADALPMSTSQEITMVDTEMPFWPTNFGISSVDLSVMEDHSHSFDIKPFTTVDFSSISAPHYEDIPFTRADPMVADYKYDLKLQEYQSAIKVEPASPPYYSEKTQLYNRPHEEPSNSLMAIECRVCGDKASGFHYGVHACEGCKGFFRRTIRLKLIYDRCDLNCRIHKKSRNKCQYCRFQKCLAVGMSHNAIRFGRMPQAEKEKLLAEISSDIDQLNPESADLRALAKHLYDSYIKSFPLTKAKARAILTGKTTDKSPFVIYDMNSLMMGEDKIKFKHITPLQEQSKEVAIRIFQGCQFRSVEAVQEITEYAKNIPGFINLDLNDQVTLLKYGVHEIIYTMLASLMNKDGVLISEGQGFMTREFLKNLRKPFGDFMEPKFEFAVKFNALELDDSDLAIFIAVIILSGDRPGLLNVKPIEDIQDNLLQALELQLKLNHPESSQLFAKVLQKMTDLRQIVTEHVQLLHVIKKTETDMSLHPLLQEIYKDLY

[7] = Half-life was measured in mice; format: ADME, organism-based; settings: mouse, in vivo
[8] = biological target: T3, Peroxisome proliferator-activated receptor alpha; assay: Maximum transcriptional activation of human PPAR alpha receptor; IA=inactive

EC50 [1] [nM]	IC50 [2] [nM]	EC50 [4] [nM]	half-life [7] [min]	EC50 [8]	SMILES	EC50 [3] [nM]	EC50 [5]	EC50 [6] [nM]
7900	1000	1900	–	–	Cc1nc(-c2ccc(C(F)(F)F)cc2)sc1COc1ccc(CC(=O)O)cc1	6900	–	–
4200	60	30	–	–	Cc1cc(OCc2sc(-c3ccc(C(F)(F)F)cc3)nc2C)ccc1CCC(=O)O	1700	–	–
3300	90	60	< 10	–	Cc1nc(-c2ccc(C(F)(F)F)cc2)oc1COc1ccc(CCC(=O)O)cc1	280	–	–
9800	340	470	–	Not Active	Cc1nc(-c2ccc(C(F)(F)F)cc2)oc1COc1ccc(OCC(=O)O)cc1	–	–	–
6400	90	420	–	Not Active	Cc1nc(-c2ccc(C(F)(F)F)cc2)oc1CSc1ccc(OCC(=O)O)cc1	–	–	–
–	5500	5900	–	Not Active	Cc1nc(-c2ccc(C(F)(F)F)cc2)oc1COc1ccc(C(=O)O)cc1	–	Not Active	–

Second part, the compound before the results:

SMILES	EC50 [1] [nM]	IC50 [2] [nM]	EC50 [4] [nM]	half-life [7] [min]	EC50 [8]	EC50 [3] [nM]	EC50 [5]	EC50 [6] [nM]
Cc1cc(OCc2sc(-c3ccc(C(F)(F)F)cc3)nc2C)ccc1/C=C/C(=O)O	2700	1000	20	–	–	3200	–	–
Cc1cc(OCc2oc(-c3ccc(C(F)(F)F)cc3)nc2C)ccc1OCC(=O)O	–	30	30	–	–	3200	Not Active	–
Cc1cc(SCc2sc(-c3ccc(C(F)(F)F)c(F)c3)nc2C)ccc1OCC(=O)O	2000	–	–	–	–	1100	–	> 10000
Cc1nc(-c2ccc(C(F)(F)F)cc2)sc1COc1ccc(CCC(=O)O)cc1	7040	30	90	–	–	3000	–	–
Cc1cc(SCc2oc(-c3ccc(C(F)(F)F)cc3)nc2C)ccc1OCC(=O)O	1610	3	10	–	–	2500	–	–
